A short description of this series: Acute inhalation toxicity (OECD Guideline No. 403). Conditions: in vivo, inhaled, OECD Guideline No. 403 (2009), Method B.2 of Commission Regulation (EC) No. 440/2008. From the text:
LC50 is a measure of the acute toxicity of a compound. The acute inhalation toxicity of a compound can be assessed using the method described in the OECD Guideline for Testing of Chemicals No. 403 “Acute Inhalation Toxicity” (2009), Method B.2. (Inhalation) of Commission Regulation (EC) No. 440/2008.

Results on one compound are retold here after patent publication US20200199501A1, “SOLVENT COMPOSITIONS CONTAINING 1,2,2-TRIFLUORO-1-TRIFLUOROMETHYLCYCLOBUTANE (TFMCB)” (Honeywell International Inc., priority 2018, published 2020).

As a reminder, the LC50 is the concentration that kills 50% of the test population. Lower therefore signals greater toxicity. The compound `FC(F)(F)C1(F)CCC1(F)F` (stereo not shown) [TFMCB, 1,2,2-trifluoro-1-trifluoromethylcyclobutane] showed an LC50 of more than 19.1 µg/mL.
